Data set [1] can be described thus: Oral administration of 14C-ISF402: radioactivity in blood, serum and urine. It is filed as in vivo, rat. On the procedure: (§1) ^14C-ISF402 (22.7 μCi/mg) was dissolved in water and diluted with unlabelled ISF402 to a concentration of 30 mg/mL for oral and 4.5 mg/mL for intravenous (IV) administration. The day before the experiment 16-18 week female Zucker fa/fa rats (300-400 g) rats were fasted overnight with free access to water before oral administration of ^14C-ISF402 by gavage at 30 mg/kg, 260-263.7 kBq/kg (5.0-5.1 μCi/kg) or IV with 4.5 mg/kg, 103.0-107.3 kBg/kg (1.98-2.06 μCi/kg). After administration of ^14C-ISF402 rats were placed into metabolic cages with free access to food and water.
(§2) Blood samples were collected from the tail vein over the 7 hour time course. Urine was collected at 4 and 12 hours after administration. Whole blood samples (100 μL) were collected and placed into dry ice then stored at −80° C. 50 μL of serum from whole blood was collected into T-MG clotting capiject tubes (Terumo, Elkton, Md.). Sera were separated by centrifuging blood for 90 seconds at 3000×g at room temperature. 100 μL and 50 μL of whole blood and serum, respectively was used for the measurement of radioactivity. The whole blood and serum samples were solubilized with 2 volumes of sample, 2 volumes of 1.4M NaOH and 1 volume of 30 percent hydrogen peroxide. The final volume was made to 1 mL by the addition of distilled water. 4 mL of HiSafe3 Optiphase (PerkinElmer, Boston, Mass.) was added and radioactivity determined in a Wallac Scintillation counter.
(§3) Urine was frozen at −20° C. until analysed for radioactivity. After measuring the total volume of urine, 100 μL of urine and 100 μL ethanol was added to 4 mL scintillant. Samples were left overnight after the addition of scintillant then counted for radioactivity using a Wallac 1409 liquid scintillant counter (PerkinElmer, Boston, Mass.). Radioactivity in all samples was counted several times over the course of 4 weeks until readings were consistent. Radioactivity was expressed as μg equivalent (eq.)/mL. This was calculated from the dpm per mL of sample divided by the specific radioactivity of the peptide administered. The integrity of the radiolabelled peptide in serum and urine samples was determined by reverse phase HPLC as described above.

A short description of data set [2]: Intravenous administration of 14C-ISF402: radioactivity in blood and serum. The class given is in vivo, rat. As to the method:
as §1, §2, §3

The target of the next data set is T1, Zinc-insulin hexamers (Bos taurus, UniProt P01317).
T1 construct: Zinc-insulin hexamers were prepared by dissolving bovine insulin containing 0.6% zinc
T1 sequence (P01317 25-54 limits assumed): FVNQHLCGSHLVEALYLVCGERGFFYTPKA
T1 sequence (P01317 85-105 limits assumed): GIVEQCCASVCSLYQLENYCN
Kind of data set: Circular dichroism of zinc-insulin hexamers (dispersal). To be noted: Zn-insulin 1 mg/mL; for CD signal at 275 nm of Zn-insulin upon addition: ISF401 1 μL of 100 mM, EDTA 4 mM. It is filed as biochemical, bovine. On the procedure: Zinc-insulin hexamers were prepared by dissolving bovine insulin containing 0.6% zinc in […] then raising the pH to 7.2-7.4 by addition of NaOH. HEPES buffer was added to give a final solution of 1 mg/mL insulin in 25 mM HEPES buffer (pH 7.2). The CD spectrum of insulin or ISF401 was measured from […] at 20° C. on a Jasco J-810 spectropolarimeter equipped with a PFD 423S/L Peltier type temperature controller. 200 μL of sample was placed in a quartz cuvette, with path length of 1 mm, in the spectropolarimeter and the CD spectrum was recorded. Each spectrum represents an average of 3-5 scans performed at 100 nm/min with a band width of 1 nm. The effect of ethylenediamine tetraacetic acid (EDTA) and ISF401 were measured by adding an aliquot of EDTA (4 mM) or an aliquot of ISF401 (100 mM) and measuring the CD spectrum.
To test dispersal of insulin hexamers by ISF401, circular dichroism (CD) was used.
The CD signal at 275 nm was used to measure the association state of insulin in the presence of ISF401 (1 μL of 100 mM), EDTA ([…] of 4 mM) and deionised water (1 μL).

Another data set deals with T2, hexameric insulin (Homo sapiens, UniProt P01308).
T2 construct: correspond to dimeric insulin (11.8 kDa) and monomeric (5.8 kDa) insulin respectively; purchased Sigma 19278
T2 sequence (P01308 25-54 limits assumed): as the sequence (P01317 25-54 limits assumed) above, with A30T counted along it
T2 sequence (P01308 90-110 limits assumed): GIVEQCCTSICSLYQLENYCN
Description: Size exclusion chromatography of hexameric insulin with test peptide. The class given is biochemical. As to the method: Size exclusion chromatography was used to study the effect of GHTD-amide (ISF401) on hexameric insulin. Recombinant Human Insulin solution (Sigma 19278) was diluted to 2 mg/mL with 10 mM Tris pH 7.4 and dialysed against 10 mM Tris pH 7.4 (to remove HEPES which absorbs strongly at 214 nm and coelutes with GHTD-amide). Insulin stock solution at 1.5 mg/mL was then prepared by addition of phenol to 4 mM, NaCl to 140 mM and ZnCl2 to 100 μM. Prior to size exclusion chromatography stock insulin was mixed either with water or test peptide to give a final concentration 1 mg/mL each of insulin and test peptide when applicable, and 10 mM Tris pH 7.4, 140 mM NaCl and […] ZnCl2 then incubated at room temperature for 1 hour. Samples of insulin or mixtures (800 μL) were then subjected to size exclusion chromatography using a 1×30 cm Superdex 75 HR 10/30 column at a flow rate of 0.1 mL min^−1 with an eluent comprising Tris-buffered isotonic saline (140 mM NaCl, 10 mM Tris/HCl pH 7.4, 60 μM ZnCl2) at a flow rate of 0.1 mL min^−1, UV detection at 214 nm and 276 nm, and collection of 0.5 mL fractions for protein determination. Protein size standards Aprotinin (6 kDa) and Carbonic Anhydrase (29 kDa) run under the same conditions eluted at 18.85 mL and 14.75 mL respectively. The gel matrix, which has a fractionation range of 3,000 to 70,000 Da, and sample volume loaded were chosen to ensure that the two peptides remained in contact within the gel matrix thereby allowing interaction to occur between the two during the separation process. The concentration of insulin was maintained at 1 mg/mL at pH 7.4 in the presence of 2 Zn^2+/hexamer since it has been shown that at this concentration insulin exists predominantly as Zn^2+-dependent hexamers.

For the next data set, the system named is female Zucker fa/fa rats. Description: Intravenous injection of female Zucker fa/fa rats: blood glucose, serum insulin, C-peptide, triglyceride. It is filed as in vivo, rat. To be noted: iv, Lispro insulin 1 U/kg alone, 60 minutes after injection.
[3] abbreviates: IV 4.5 mg/kg, 2 minutes after injection.
Where [4] appears, read: IV 4.5 mg/kg, 90 minutes after injection, assuming radioactivity is intact ISF402.
Where [5] appears, read: after incubation with test peptide, 276 nm.

“And” between values parts separate entries of the source, which are not always exact repeats. Equal entries are not always repeated. Ends that are not written are not given here. Peptide text beside a SMILES is read from it.

For `CC(C)[C@H](N)C(=O)N[C@@H](Cc1c[nH]cn1)C(=O)N[C@H](C(=O)N[C@@H](CC(=O)O)C(N)=O)[C@@H](C)O` [14C-ISF402] (H-VHTD-NH2), in data set [1] (30 minutes after oral dosing), the “concentration in whole blood and sera” value is “Approximately 4 μg/mL”. Further, in data set [1] (oral 30 mg/kg), the “time to appearance in the circulation after dosing” value was at most 30 min. Also, the “concentration in whole blood (radioactivity)” value in data set [1] (oral 30 mg/kg, 7 hours) was determined as 44200 ± 2500 ng/mL; in data set [1] (oral 30 mg/kg, after 90 minutes, assuming labelled ISF402 still intact), 23700 ± 2100 ng/mL; in data set [2] (setting [3]), 12000 ± 1000 ng/mL; in data set [2] (setting [4]) it was 3400 ± 1300 ng/mL. Also, the “concentration in sera (radioactivity)” value in data set [1] (oral 30 mg/kg, after 90 minutes) was 22100 ± 4900 ng/mL. In addition, the level at 2 h in data set [1] (rat, in vivo, 30 mg/kg, 120 minutes after oral dosing, read-out: ISF402 levels in the circulation) was over 20000 ng/mL. For the same compound, the “composition of radioactivity in urine” value in data set [1] (urine collected over 4 hours after dosing) is “mixture of degraded peptide and intact ISF402”. The “share of radioactivity in urine associated with intact ISF402” value in data set [1] (urine collected over 12 hours after administration) is 47% and 46%. Besides, the “radioactivity retrieved in urine, of the total radioactive ISF402 administered” value in data set [1] (urine, 12 hours) amounted to 0.97±0.13%. In data set [1] (urine, 12 hours after administration), the “share of radioactivity in urine associated with free Valine” value stood at 32%. The “concentration in serum (radioactivity)” value in data set [2] (setting [3]) was 24800 ± 300 ng/mL; in data set [2] (setting [4]), 8000 ± 2000 ng/mL. In data set [2] (rat, in vivo, IV 4.5 mg/kg, 7 hours, read-out: concentration detected at the conclusion of the time course), the level at 7 h came to 2200 ± 1500 ng/mL. For the same compound, in data set [2] (serum collected 2 minutes after IV administration), the “integrity of peptide in serum by reverse phase HPLC” value is “intact”.
In the case of `O=C(O)CN(CCN(CC(=O)O)CC(=O)O)CC(=O)O` [EDTA, ethylenediamine tetraacetic acid, reference compound], at Zinc-insulin hexamers, the “CD signal at 275 nm of Zn-insulin upon addition” value is recorded as “increased”.
On to Gly-His-Thr-Asp-NH2 (GHTD-NH2) [ISF401], for which, in the data set with Zinc-insulin hexamers, the “molar excess to insulin at maximum dispersion of insulin hexamers” value is 10 fold and the “CD signal at 275 nm of Zn-insulin upon addition” value is recorded as “increased”. Further, the “dissociation of hexameric insulin after incubation with test peptide” value with hexameric insulin (1 mg/mL each of insulin and peptide, 1 hour room temperature, monitoring at 276 nm) was “cause the dissociation (disaggregation) of hexamers to dimeric and monomeric forms”. Besides, in the data set with hexameric insulin (setting [5]), the “elution volume of emerging peak corresponding to dimeric insulin (11.8 kDa)” value was determined as 15.085 mL and the “elution volume of emerging peak corresponding to monomeric (5.8 kDa) insulin” value is 19.045 mL.
Regarding “Lispro insulin: altered form of human insulin that does not form stable hexamers; Lispro (Humalog), Eli Lilly [reference compound]”, the “reduction in blood glucose” value with female Zucker fa/fa rats is 0.90 ± 0.77 mmol/L.
